In patent US11590117B2, “Treatment of a hematologic malignancy with 2-(4-chlorophenyl)-n-((2-(2,6-dioxopiperidin-3-yl)-1-oxoisoindolin-5-yl)methyl)-2,2-difluoroacetamide” (priority 2016, dated 2023):
pIC50: −log10 of the molar value.

How the values were obtained:
PBMCs = experiment: Flow cytometry viable cell counting, 72 hours; format: cell-based; conditions: Homo sapiens, PBMC, PBMCs not pre-activated, read-out: cell count IC50
Experimental: (§1) The effects of Compound 1 in healthy PBMCs were also assessed. Compound 1 was added to PBMC s from one donor at time zero and assessed at 72 hours. This was compared to PBMCs that were pre-activated and proliferating on anti-CD3 antibody-coated plates for 72 hours before Compound 1 was added and the cells were incubated for an additional 72 hours. HNT-34 cells were used as a sensitive positive control cell line. Peripheral blood mononuclear cells that were pre-activated were resistant to the antiproliferative effects of Compound 1 (IC50>[…]) as determined by CTG and viable cell count. However, Compound 1 did reduce cell proliferation in PBMCs that were not pre-activated, as measured using two methods, CTG and flow cytometry cell counting (CTG IC50=0.1 μM; cell count IC50=0.5 μM). […] Similar or greater differences in Compound 1-induced elevation of caspase 3/7 and membrane depolarization were seen between pre-activated PBMCs and HNT-34 cells.

HNT-34 = experiment: Flow cytometry viable cell counting, 72 hours; format: cell-based; conditions: Homo sapiens, HNT-34 as sensitive positive control cell line in PBMC comparison, read-out: cell count IC50
Experimental: as §1

[1] = system: HR-MDS, sAML and normal bone marrow progenitors; experiment: SL/M2 stromal co-culture colony forming assay (cell survival assay); format: cell-based, human
Experimental: Methods. Mouse stromal cells SL/M2 stably expressing human interleukin-3 (IL-3), granulocyte colony stimulating factor (G-CSF) and stem cell factor (SCF) were cultured to confluency, followed by gamma-irradiation. Human CD34+ bone marrow cells isolated from 3 high-risk MDS patients (HR-MDS), 3 secondary AML patients arising from MDS (sAML) and 5 age-matched healthy donors were then cultured with inactivated SL/M2 cells for a week. Next, human progenitor cells were quantified by FACS and cells were plated in methylcellulose for colony forming assay (cell survival assay). After two weeks, 20-25 colonies were picked from each condition, resuspended and replated in fresh methylcellulose for 2nd round of colony forming assay (cell self-renewal assay).

[2] = system: Chronic Lymphocytic Leukemia patient samples; experiment: CellTiter-Glo (CTG) cell proliferation assay, 72 hours; format: cell-based; conditions: Homo sapiens, Chronic Lymphocytic Leukemia patient samples (n = 3)
Experimental: Table, Table 2 and Table 3. Human normal donor PBMCs and chronic lymphoid leukemia (CLL) patient blasts were obtained from AllCells, LLC (Alameda, Calif.).
(§2) Preparation of Solutions of Test Article: Compounds were plated into black 384-well plates (Corning Inc.) to a final DMSO volume of 0.1% assuming a maximal volume of 50 μL. A 10-point dose response starting at 10 μM with a 1:3 dilution was printed in duplicate by acoustic dispense using the EDC ATS-100 platform.
(§3) Cell Proliferation Assays: The effect of Compound 1 on the proliferation/viability of the hematological cell lines (Table 1 Table, Table 2 and Table 3), THLE-2, or PBMCs was assessed after 72 hours incubation using CTG (Promega), according to manufacturer's instructions. Hematological cell lines were dispensed into compound plates by a Multidrop™ Combi Reagent Dispenser (Thermo Scientific, Waltham, Mass.) at a concentration of 0.1 to 0.3×10^6 cells per mL in a 50 μL total volume. THLE-2 cells were seeded out at 1000 cells per well in 50 μL volume and incubated for 72 hours. At 72 hours, 25 μL per well of CTG was dispensed by a Multidrop™ Combi Reagent Dispenser and adenosine triphosphate (ATP) release by viable cells was measured as relative luminescence units after 30 minutes using the Envision platform.

Ramos = experiment: as above; format: cell-based; conditions: Homo sapiens, Burkitt Lymphoma
Experimental: as §2, §3

U2932 = experiment: as above; format: cell-based; conditions: Homo sapiens, Diffuse Large B-cell Lymphoma (activated B-cell like)
Experimental: as §2, §3

HS-Sultan = experiment: as above; format: cell-based; conditions: Homo sapiens, Burkitt Lymphoma
Experimental: as §2, §3

Daudi = experiment: as above; format: cell-based; conditions: Homo sapiens, Burkitt Lymphoma
Experimental: as §2, §3

MC-116 = experiment: as above; format: cell-based; conditions: Homo sapiens, MC116, Acute Lymphoblastic Leukemia
Experimental: as §2, §3

BL-41 = experiment: as above; format: cell-based; conditions: Homo sapiens, Burkitt Lymphoma
Experimental: as §2, §3

RC-K8 = experiment: as above; format: cell-based; conditions: Homo sapiens, RCK8, Diffuse Large B-cell Lymphoma (activated B-cell like)
Experimental: as §2, §3

Blue-1 = experiment: as above; format: cell-based; conditions: Homo sapiens, Burkitt Lymphoma
Experimental: as §2, §3

OCI-LY-10 = experiment: as above; format: cell-based; conditions: Homo sapiens, OCI-Ly10, Diffuse Large B-cell Lymphoma (activated B-cell like)
Experimental: as §2, §3

Raji = experiment: as above; format: cell-based; conditions: Homo sapiens, Burkitt Lymphoma
Experimental: as §2, §3

EB-1 = experiment: as above; format: cell-based; conditions: Homo sapiens, EB1, Burkitt Lymphoma
Experimental: as §2, §3

Namalwa = experiment: as above; format: cell-based; conditions: Homo sapiens, Burkitt Lymphoma
Experimental: as §2, §3

DG-75 = experiment: as above; format: cell-based; conditions: Homo sapiens, Burkitt Lymphoma
Experimental: as §2, §3

BL-70 = experiment: as above; format: cell-based; conditions: Homo sapiens, Burkitt Lymphoma
Experimental: as §2, §3

SR = experiment: as above; format: cell-based; conditions: Homo sapiens, Acute Lymphoblastic Leukemia
Experimental: as §2, §3

Karpas 231 = experiment: as above; format: cell-based; conditions: Homo sapiens, Acute Lymphoblastic Leukemia
Experimental: as §2, §3

Karpas 299 = experiment: as above; format: cell-based; conditions: Homo sapiens, Anaplastic Large Cell Lymphoma
Experimental: as §2, §3

O=C1CCC(N2Cc3cc(CNC(=O)C(F)(F)c4ccc(Cl)cc4)ccc3C2=O)C(=O)N1 (stereo not drawn) [Compound 1, 2-(4-chlorophenyl)-N-((2-(2,6-dioxopiperidin-3-yl)-1-oxoisoindolin-5-yl)methyl)-2,2-difluoroacetamide]
pIC50 (PBMCs): 6.30 | pIC50 (HNT-34): 8.40 | colony formation (cell survival) [1]: significant cytotoxicity | pIC50 [2]: 8.00 | pIC50 (Ramos): < 5.00 | pIC50 (U2932): 6.04 | pIC50 (HS-Sultan): < 5.00 | pIC50 (Daudi): 6.41 | pIC50 (MC-116): < 5.00 | pIC50 (BL-41): < 5.00 | pIC50 (RC-K8): 6.02 | pIC50 (Blue-1): 6.01 | pIC50 (OCI-LY-10): < 5.00 | pIC50 (Raji): < 5.00 | pIC50 (EB-1): 7.18 | pIC50 (Namalwa): 7.13 | pIC50 (DG-75): < 5.00 | pIC50 (BL-70): 6.46 | pIC50 (SR): < 5.00 | pIC50 (Karpas 231): 6.10 | pIC50 (Karpas 299): < 5.00
